Assay results published in patent US5693756A, “Amiloride-sensitive sodium channel and method of identifying substances which stimulate or block salty taste perception” (The Johns Hopkins University, priority 1995, dated 1997).
pKd: −log10 of the molar value.

Legend:
[1] = molecular target: T1, αENAC (Rattus norvegicus, UniProt P37089); assay: [3H]phenamil binding to membranes from HEK-293 cells transfected with native αENAC
T1 construct: alpha subunit transfected alone
T1 sequence (P37089 1-698): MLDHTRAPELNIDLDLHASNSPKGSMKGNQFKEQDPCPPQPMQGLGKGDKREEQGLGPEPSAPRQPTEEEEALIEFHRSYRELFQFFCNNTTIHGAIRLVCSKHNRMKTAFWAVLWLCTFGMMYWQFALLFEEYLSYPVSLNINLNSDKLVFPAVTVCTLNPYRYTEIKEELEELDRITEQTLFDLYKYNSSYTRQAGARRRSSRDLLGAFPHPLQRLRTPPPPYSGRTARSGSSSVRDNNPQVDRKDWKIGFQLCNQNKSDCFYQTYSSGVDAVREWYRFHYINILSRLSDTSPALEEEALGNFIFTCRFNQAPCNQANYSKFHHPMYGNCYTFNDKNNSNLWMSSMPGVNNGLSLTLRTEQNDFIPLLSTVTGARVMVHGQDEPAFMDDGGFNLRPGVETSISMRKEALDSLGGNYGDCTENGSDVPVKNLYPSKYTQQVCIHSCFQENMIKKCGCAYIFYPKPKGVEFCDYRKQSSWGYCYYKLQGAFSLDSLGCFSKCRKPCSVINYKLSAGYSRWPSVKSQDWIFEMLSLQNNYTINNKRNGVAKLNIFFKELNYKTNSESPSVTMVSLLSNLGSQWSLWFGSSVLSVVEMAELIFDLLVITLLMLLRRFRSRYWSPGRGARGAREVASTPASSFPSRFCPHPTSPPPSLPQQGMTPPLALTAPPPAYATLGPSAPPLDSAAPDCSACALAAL
Text: (§1) Amiloride sensitive sodium channels have been extensively characterized in intact tissues by the binding of radioactive ligands. […] To limit variations in expression of individual clones, a pool of stably expressed cells (about 30 clones) that were mixed and propagated 3-4 times were used for the binding assay.
(§2) The full length cDNA of αENAC obtained by screening a rat taste cDNA library as described above (also described by Li et al., 1994, Proc. Natl. Acad. Sci. USA, 91:1814-1818, the disclosure of which is incorporated herein by reference) was cut with Not I and Xho I and inserted into an expression vector pcDNA-III (Invitrogen). The PCR product of the alternatively spliced form αENACa was cut with Bcl I to replace the corresponding region of native αENAC in pcDNA III. Thus the native form (αENAC) and an alternatively spliced form (αENACa) of the alpha subunit of ENAC in the expression vector was constructed for stable expression in HEK-293 cells. DNA (10 μg) was then transfected into HEK-293 cells by the calcium phosphate technique. Stable expression clones of cells were selected by exposure for 4-6 weeks to a medium containing 500 μg/ml G418.
(§3) Transfected HEK-293 cells were harvested in cold (4° C.) binding buffer containing 1 mM EDTA, 15 mM Tris-HCl (pH 7.7), 1 μM pepstain A, 0.1 μM aprotinin, 0.1 mM phenylmethylsulfonyl fluoride and 10 μM leupeptin. Cells were then homogenized, centrifuged and the pellet resuspended in the binding buffer at 1-2 mg/ml concentration. The reaction mixture (0.2 ml) containing [^3 H]phenamil ([…]) and 100 μg protein was incubated at 4° C. for 90 minutes and the reaction terminated by rapid filtration through Whatman GF/B glass fiber filters pretreated with 0.3% polyethyleneimine. Amiloride (Sigma) suspended in 50% dimethylformamide was used as a competitor in the binding assay. Proteins was assayed by a kit (Pierce) with bovine serum albumin as a standard.
(§4) [^3 H]phenamil binding in HEK-293 cells transfected with native αENAC or alternatively spliced αENACa are compared in FIGS. 9A and 9B. […]

[2] = molecular target: T2, αENACa (Rattus norvegicus, UniProt P37089); assay: [3H]phenamil binding to membranes from HEK-293 cells transfected with αENACa
T2 construct: expressed in transfected cells
T2 sequence (P37089 with tags, fused parts or gaps limits assumed): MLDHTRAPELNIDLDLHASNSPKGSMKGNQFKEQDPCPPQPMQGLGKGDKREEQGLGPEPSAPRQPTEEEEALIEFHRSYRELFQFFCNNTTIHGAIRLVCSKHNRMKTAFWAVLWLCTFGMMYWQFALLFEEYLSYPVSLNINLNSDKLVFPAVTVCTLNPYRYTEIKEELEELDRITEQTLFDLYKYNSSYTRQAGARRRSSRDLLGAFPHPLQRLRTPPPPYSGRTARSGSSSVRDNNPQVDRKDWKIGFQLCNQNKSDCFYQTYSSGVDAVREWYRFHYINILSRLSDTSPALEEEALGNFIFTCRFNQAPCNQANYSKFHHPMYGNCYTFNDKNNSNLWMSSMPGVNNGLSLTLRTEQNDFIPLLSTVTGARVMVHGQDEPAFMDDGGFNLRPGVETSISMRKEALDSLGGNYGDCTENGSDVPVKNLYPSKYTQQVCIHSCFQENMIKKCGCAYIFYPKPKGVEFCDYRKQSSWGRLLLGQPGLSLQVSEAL
Text: as §1, §2, §3, §4

[3] = molecular target: T2, αENACa; assay: Inhibition by amiloride of [3H]phenamil binding to membranes from HEK-293 cells transfected with αENACa; conditions: 50 nM [3H]phenamil
Procedure: as §3
(§5) Membrane protein (100 μg) was incubated with 50 nM [^3 H]phenamil in the absence or presence of increasing concentrations of amiloride. Three independent experiments were performed in duplicate. Results are presented of a typical experiment with values varying less than 20%.

[4] = molecular target: T1, αENAC; assay: Inhibition by amiloride of [3H]phenamil binding to membranes from HEK-293 cells transfected with native αENAC; conditions: 50 nM [3H]phenamil, 100 μg membrane protein, increasing concentrations of amiloride
Procedure: as §3, §5

SMILES	levels of [3H]phenamil binding, versus cells transfected only with the expression vector ([1]; HEK-293 cells transfected with native αENAC, 50 nM [3H]phenamil, 1 mM amiloride)	Bmax ([1]; saturation analysis, membranes of HEK-293 cells transfected with αENAC)	pKd ([1]; saturation analysis, membranes of HEK-293 cells transfected with αENAC, 4° C., 90 minutes)	specific [3H]phenamil binding, versus cells not transfected with the channel ([2]; HEK-293 cells transfected with αENACa, 50 nM [3H]phenamil, 1 mM amiloride)	Bmax ([2]; saturation analysis, membranes of HEK-293 cells transfected with αENACa)	pKd ([2]; saturation analysis, membranes of HEK-293 cells transfected with αENACa, 4° C., 90 minutes, read-out: apparent Kd)	inhibition of [3H]phenamil binding ([3]; 100 μg membrane protein, increasing concentrations of amiloride, αENACa)	potency in competing for [3H]phenamil binding, αENACa transfected cells relative to native channel ([3]; αENACa versus native αENAC)	inhibition of [3H]phenamil binding [4]
NC(=Nc1ccccc1)NC(=O)c1nc(Cl)c(N)nc1N [[^3 H]phenamil, phenamil]	not significantly greater	18 pmol/mg protein	6.57	doubling	28 pmol/mg protein	6.59	–	–	–
N=C(N)NC(=O)c1nc(Cl)c(N)nc1N [amiloride, N-amidino-3,5-diamino-6-chloropyrazine carboxamide]	–	–	–	–	–	–	inhibited	about 10 times	inhibited
